Results from ChEMBL document CHEMBL5385851, “Natural quinazolinones: From a treasure house to promising anticancer leads” (Eur J Med Chem, 2023).
In brackets after ≈: the same amount, converted by molar mass.

Legend:
NCI-N87 [1] = test: Cytotoxicity against human NCI-N87 cells; type: functional, cell-based
PC-3 = test: Cytotoxicity against human PC-3 cells assessed as inhibition of cell growth; type: functional, cell-based
DU-145 [2] = test: Growth inhibition of human DU-145 cells incubated for 24 hrs by sulforhodamine B assay; type: functional
HL-60 [3] = test: Cytotoxicity against human HL-60 cells assessed as reduction in cell growth incubated for 48 hrs by MTT assay; type: functional, cell-based; settings: HL-60, 48 h
NCI-N87 [4] = test: Cytotoxicity against human NCI-N87 cells measured after 72 hrs by Celltiter-Glo assay; type: functional, cell-based; settings: NCI-N87, 72 h
P388 [5] = test: Antiproliferative activity against mouse P388 cells assessed as reduction in cell proliferation incubated for 48 hrs by MTT assay; type: functional, cell-based; settings: P388, 48 h
HT-29 [6] = test: Antiproliferative activity against human HT-29 cells assessed as reduction in cell viability after 72 hrs by MTT assay; type: functional, cell-based; settings: HT-29, 72 h
P388 [7] = test: Cytotoxicity against mouse P388 cells assessed as reduction in cell viability by SRB assay; type: functional; settings: read-out: ED50 (the source's name)
HT-29 [8] = test: Cytotoxicity against human HT-29 cells assessed as cell growth inhibition by MTT assay; type: functional, cell-based
[9] = biological target: Indoleamine 2,3-dioxygenase 1 (Homo sapiens, UniProt P14902); test: Inhibition of IDO1 in HEK293 cells; type: cell-based
HL-60 [10] = test: Cytotoxicity against human HL-60 cells assessed as reduction in cell viability; type: functional, cell-based
NCI-H1975 = test: Antiproliferative activity against human NCI-H1975 cells assessed as cell growth inhibition incubated for 72 hrs by MTT assay; type: functional, cell-based; settings: NCI-H1975, 72 h
NCI-H1650 = test: Antiproliferative activity against human NCI-H1650 cells assessed as cell growth inhibition incubated for 72 hrs by MTT assay; type: functional, cell-based; settings: NCI-H1650, 72 h
MCF7 [11] = test: Antiproliferative activity against human MCF7 cells assessed as cell growth inhibition incubated for 72 hrs by MTT assay; type: functional, cell-based; settings: MCF7, 72 h
NCI/ADR-RES [12] = test: Antiproliferative activity against human MCF7ADR cells assessed as cell growth inhibition incubated for 72 hrs by MTT assay; type: functional, cell-based
OVCAR-4 = test: Cytotoxicity against human OVCAR-4 cells assessed as cell growth inhibition; type: functional
HL-60 [13] = test: Antiproliferative activity against human HL-60 cells assessed as cell growth inhibition incubated for 72 hrs by MTT assay; type: functional, cell-based; settings: HL-60, 72 h
HCT-116 [14] = test: Antiproliferative activity against human HCT-116 cells assessed as reduction in cell proliferation; type: functional, cell-based
HeLa = test: Cytotoxicity against human HeLa cells assessed as reduction in cell growth incubated for 48 hrs by MTT assay; type: functional, cell-based
MCF7 [15] = test: Cytotoxicity against human MCF7 cells assessed as reduction in cell growth incubated for 5 days by MTT assay; type: functional, cell-based; settings: MCF7, 120 h
NCI/ADR-RES [16] = test: Antiproliferative activity against human NCI-ADR-RES cells assessed as inhibition of cell growth measured after 48 hrs by SRB assay; type: functional, cell-based
U-251 [17] = test: Growth inhibition of human U-251 cells by sulforhodamine B assay; type: functional; settings: time 72 hrs
HT-29 [18] = test: Growth inhibition of human HT-29 cells by SRB assay; type: functional
HUVEC = test: Cytotoxicity against HUVEC cells assessed as reduction in cell viability incubated for 48 hrs by MTT assay; type: functional, cell-based; settings: Homo sapiens
SMMC-7721 = test: Anticancer activity against human SMMC-7721 cells assessed as cell growth inhibition incubated for 48 hrs by CCK8 assay; type: functional, cell-based; settings: SMMC-7721, 48 h
SF-295 = test: Growth inhibition against human SF-295 cells incubated for 48 hrs by sulforhodamine B assay; type: functional
NCI-N87 [19] = test: Growth inhibition of human NCI-N87 cells assessed as reduction in cell viability measured after 72 hrs by MTT assay; type: functional
HL-60 [20] = test: Growth inhibition of human HL-60 cells incubated for 4 days by WST assay; type: functional; settings: HL-60, 96 h, time 4 day
K562 [21] = test: Growth inhibition of human K562 cells incubated for 48 hrs by sulforhodamine B assay; type: functional
HCT-116 [22] = test: Anticancer activity against human HCT-116 cells assessed as cell growth inhibition; type: functional
DU-145 [23] = test: Growth inhibition of human DU-145 cells incubated for 48 hrs by sulforhodamine B assay; type: functional
MCF7 [24] = test: Antiproliferative activity against human MCF7 cells assessed as cell growth inhibition incubated for 48 hrs by MTT assay; type: functional, cell-based; settings: MCF7, 48 h
MCF7 [25] = test: Growth inhibition of human MCF7 cells incubated for 48 hrs by SRB assay; type: functional
MDA-MB-231 = test: Antiproliferative activity against human MDA-MB-231 cells assessed as reduction in cell viability after 48 hrs by SRB assay; type: functional, cell-based; settings: MDA-MB-231, 48 h
P388 [26] = test: Cytotoxicity against mouse P388 cells assessed as inhibition of cell growth incubated for 48 hrs by SRB assay; type: functional, cell-based; settings: P388, 48 h
HT-29 [27] = test: Cytotoxicity against human HT-29 cells assessed as reduction in cell viability by SRB assay; type: functional, cell-based
NCI/ADR-RES [28] = test: Growth inhibition of human MCF7ADR cells; type: functional
U-251 [29] = test: Growth inhibition of human U-251 cells; type: functional
SW-620 = test: Growth inhibition of human SW620 cells; type: functional
NCI-H522 = test: Growth inhibition of human NCI-H522 cells; type: functional
M14 = test: Growth inhibition of human M14 cells; type: functional
SK-OV-3 = test: Growth inhibition of human SK-OV-3 cells by sulforhodamine B assay; type: functional
DU-145 [30] = test: Growth inhibition of human DU-145 cells by sulforhodamine B assay; type: functional
A498 = test: Growth inhibition of human A498 cells by SRB method; type: functional
U-937 = test: Cytotoxicity against human U-937 cells assessed reduction in cell growth incubated for 48 hrs by MTT assay; type: functional, cell-based; settings: U-937, 48 h
K562 [31] = test: Cytotoxicity against human K562 cells assessed reduction in cell growth incubated for 48 hrs by MTT assay; type: functional, cell-based; settings: K562, 48 h
[32] = Antiproliferative activity against human LA-N-1 cells assessed as cell growth inhibition; type: functional, cell-based; settings: LAN1
SH-SY5Y = test: Cytotoxicity against human SH-SY5Y cells assessed as reduction in cell viability; type: functional, cell-based
SK-N-DZ = test: Anticancer activity against human SK-N-DZ cells assessed as cell growth inhibition measured after 72 hrs by DAPI staining based analysis; type: functional
A-431 = test: Anticancer activity against human A-431 cells assessed as reduction of cell viability incubated for 48 hrs by MTT assay; type: functional, cell-based; settings: A-431, 48 h

Chain of Indoleamine 2,3-dioxygenase 1 (P14902 whole entry): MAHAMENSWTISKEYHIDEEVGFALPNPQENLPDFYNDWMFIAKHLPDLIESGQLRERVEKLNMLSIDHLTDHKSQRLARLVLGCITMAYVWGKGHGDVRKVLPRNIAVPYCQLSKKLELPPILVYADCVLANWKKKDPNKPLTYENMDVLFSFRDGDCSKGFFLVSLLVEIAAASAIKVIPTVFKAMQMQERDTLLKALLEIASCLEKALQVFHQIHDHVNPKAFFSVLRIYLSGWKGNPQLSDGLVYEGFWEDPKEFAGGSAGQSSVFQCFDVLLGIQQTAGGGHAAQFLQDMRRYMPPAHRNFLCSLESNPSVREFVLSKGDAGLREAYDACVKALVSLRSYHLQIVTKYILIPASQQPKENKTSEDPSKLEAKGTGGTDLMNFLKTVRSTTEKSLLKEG

For `O=c1c2ccc(O)cc2nc2c3[nH]c4ccccc4c3ccn12`, the IC50 (NCI-N87 [1]) was 27.9 µM and the IC50 (PC-3) was 17.4 µM.
`C[S+]([O-])c1ccc2[nH]c3c(c2c1)CCN1C(=O)c2ccccc2NC31` (stereo not given) gave a GI50 (DU-145 [2]) of 0.1 µM.
`CO[C@@H]1c2c([nH]c3ccccc23)-c2nc3ccccc3c(=O)n2[C@H]1O` showed an IC50 (HL-60 [3]) of 7.82 µM and an IC50 (NCI-N87 [4]) of 22.3 µM.
For `O=c1c2cccc(O)c2nc2n1CCc1c-2[nH]c2ccccc12`, the IC50 (P388 [5]) was 12.4 µM and the IC50 (HT-29 [6]) was 24.7 µM.
In the case of `COc1cccc2c(=O)n3ccc4c5ccccc5[nH]c4c3nc12`, the EC50 (P388 [7]) is reported as 12.3 µM and the IC50 (HT-29 [8]) is reported as 27.1 µM.
With `O=C1c2ccccc2N[C@H]2[C@H](O)C3C=C(F)C=CC3N12` (stereo not given in full) the IC50 [9] was 0.0243 µM.
Compound `CCO[C@@H]1c2c([nH]c3ccccc23)-c2nc3ccccc3c(=O)n2[C@H]1O` has an IC50 (HL-60 [10]) of 8.31 µM.
In the case of `CN1c2ccccc2C(=O)N2CCc3c([nH]c4ccccc34)C21` (stereo not given), the IC50 (NCI-H1975) is reported as 5.59 µM, the IC50 (NCI-H1650) is reported as 4.53 µM and the IC50 (MCF7 [11]) is reported as 0.3 µM. It also gave an IC50 (NCI/ADR-RES [12]) of 0.47 µM.
With `O=c1c2cc(Cl)ccc2nc2n1CCc1c-2[nH]c2ccccc12` the GI50 (OVCAR-4) was 1.5 µM.
In the case of `O=c1c2ccccc2nc2n1Cc1cc3ccccc3nc1-2` [LUOTONIN A], the IC50 (HL-60 [13]) is reported as greater than 100 µM, the IC50 (HCT-116 [14]) is reported as 51.1 µM and the IC50 (HeLa) is reported as 3 µM. For the same compound, the IC50 (MCF7 [15]) was 3 µM and the IC50 (NCI/ADR-RES [16]) was 3 µM.
Work on `O=c1c2ccccc2nc2n1CCc1c-2[nH]c2ccccc12` [RUTAECARPINE] yielded a GI50 (U-251 [17]) of 0.02 µM, a GI50 (HT-29 [18]) of 31.6 µM and an IC50 (HUVEC) of 16.5 µM. For the same compound, the IC50 (SMMC-7721) was 18.9 µM, the GI50 (SF-295) was 14.1 µM and the GI50 (NCI-N87 [19]) was 8.41 µM. It also gave a GI50 (HL-60 [20]) of 19.8 µM, a GI50 (K562 [21]) of 25.8 µM and a GI50 (HCT-116 [22]) of 33.9 µM. The GI50 (DU-145 [23]) was 31.7 µM, the IC50 (MCF7 [24]) was 74.5 µM and the GI50 (MCF7 [25]) was 19.6 µM. For the same compound, the IC50 (MDA-MB-231) was 118 µM, the IC50 (P388 [26]) was 36.8 µM and the IC50 (HT-29 [27]) was 118 µM.
Work on `O=C1c2ccccc2-n2c1nc1ccccc1c2=O` [TRYPTANTHRIN] yielded a GI50 (NCI/ADR-RES [28]) of 30 µM, a GI50 (U-251 [29]) of 100 µM and a GI50 (SW-620) of 5 µM. It also gave a GI50 (NCI-H522) of 15 µM, a GI50 (M14) of 15 µM and a GI50 (SK-OV-3) of 2.5 µM. The GI50 (DU-145 [30]) was 0.4 µM, the GI50 (A498) was 0.95 µM and the IC50 (U-937) was 3.1 µg/mL (≈ 12.5 µM). It also gave an IC50 (K562 [31]) of 6.3 µg/mL (≈ 25.4 µM), an IC50 [32] of 15.8 µM and an IC50 (SH-SY5Y) of 22 µM. For the same compound, the IC50 (SK-N-DZ) was 14 µM and the IC50 (A-431) was 9 µM.
